Experimental findings from PubChem BioAssay AID1053207 (Broad Institute, 2014) are described below.

The structures appear in SMILES notation. The source made the active and inactive calls. The rule behind the calls is not given here.

Usually AC50 stands for the concentration giving half of the maximal activity seen.

Assay [1] in a line: Stage specific inhibitors, Vaccinia infected cells, mCherry fluorescence, dry powder confirmation (AID 1053207). The note with it: Vaccinia-infected cells, mCherry/Venus stage reporter fluorescence; for max activity: measured here: Venus reporter max activity.
Assay [2] has as its system Vaccinia-infected cells, mCherry/Venus stage reporter fluorescence. The description is as above.
Setting [3] is: measured here: mCherry reporter channel.

Consider `Cc1cccc(-c2ccc(CN(C)C[C@@H]3Oc4cc(C#C[C@@H](C)O)ccc4S(=O)(=O)N([C@@H](C)CO)C[C@@H]3C)cc2)c1`, for which, in assay [1] (at 2.6 µM), the max activity came out at 140%. Besides, the AC50 in assay [2] and in assay [2] (setting [3]) was 1660 nM in each case.
Turning to `C[C@@H](O)C#Cc1ccc2c(c1)O[C@@H](CN(C)Cc1ccc(-c3ccccc3Cl)cc1)[C@@H](C)CN([C@@H](C)CO)S2(=O)=O`, the max activity in assay [1] (at 2.6 µM) amounted to 145%. The AC50 in assay [2] and in assay [2] (setting [3]) was 1190 nM each time.
For `C[C@@H](O)C#Cc1ccc2c(c1)O[C@@H](CN(C)S(=O)(=O)c1ccc(-c3ccccc3)cc1)[C@@H](C)CN([C@@H](C)CO)S2(=O)=O`, the activity change, negative = inhibition in assay [1] (at 19.5 µM (top of the series)) was -18.5% (inactive). Moreover, the max activity in assay [1] (at 10 µM) is -14.6%. The AC50 in assay [2] (measured here: Venus reporter channel) and in assay [2] (setting [3]) was more than 39000 nM throughout.
Consider `Cc1ccccc1-c1ccc(CN(C)C[C@@H]2Oc3cc(C#C[C@@H](C)O)ccc3S(=O)(=O)N([C@@H](C)CO)C[C@@H]2C)cc1`, for which, in assay [1] (at 2.6 µM), the max activity stood at 157%. Besides, the half-maximal activity concentration (AC50) in assay [2] and in assay [2] (setting [3]) was 1230 nM throughout.
For `Cc1ccc(-c2ccc(CN(C)C[C@@H]3Oc4cc(C#C[C@@H](C)O)ccc4S(=O)(=O)N([C@@H](C)CO)C[C@@H]3C)cc2)cc1`, the max activity in assay [1] (at 1.2 µM) turned out to be 122%. In addition, the AC50 in assay [2] and in assay [2] (setting [3]) was 1250 nM each time.
`C[C@@H](O)C#Cc1ccc2c(c1)O[C@@H](CN(C)Cc1ccc(-c3ccccc3)cc1)[C@@H](C)CN([C@@H](C)CO)S2(=O)=O`: the max activity in assay [1] (at 2.6 µM) came out at 115%. Further, the AC50 in assay [2] and in assay [2] (setting [3]) was 2350 nM in each case.
